Results as given in US20070032468A1, “Novel thioxanthine derivatives for use as inhibitors of mpo” (AstraZeneca AB, priority 2003, published 2007).

Biological target: T1, human MPO (Homo sapiens, UniProt P05164)
T1 sequence (P05164 49-745): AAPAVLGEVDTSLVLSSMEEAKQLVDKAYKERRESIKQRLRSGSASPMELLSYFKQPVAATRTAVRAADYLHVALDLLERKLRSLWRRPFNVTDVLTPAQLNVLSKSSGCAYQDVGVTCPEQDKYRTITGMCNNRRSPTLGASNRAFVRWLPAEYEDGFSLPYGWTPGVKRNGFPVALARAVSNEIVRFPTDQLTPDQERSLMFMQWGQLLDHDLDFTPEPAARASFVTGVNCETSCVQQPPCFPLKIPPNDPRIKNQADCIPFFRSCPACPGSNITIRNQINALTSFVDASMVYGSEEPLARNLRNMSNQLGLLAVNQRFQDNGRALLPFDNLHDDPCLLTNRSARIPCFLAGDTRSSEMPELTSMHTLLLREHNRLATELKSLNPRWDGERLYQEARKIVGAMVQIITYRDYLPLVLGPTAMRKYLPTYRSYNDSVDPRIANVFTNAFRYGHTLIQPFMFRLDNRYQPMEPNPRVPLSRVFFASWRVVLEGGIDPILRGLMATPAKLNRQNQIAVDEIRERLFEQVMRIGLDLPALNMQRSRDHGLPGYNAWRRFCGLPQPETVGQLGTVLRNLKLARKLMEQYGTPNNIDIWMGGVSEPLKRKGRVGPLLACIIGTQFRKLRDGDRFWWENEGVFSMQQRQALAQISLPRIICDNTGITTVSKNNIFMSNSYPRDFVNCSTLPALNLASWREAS
Assay: MPO inhibitory activity screen (TMB oxidation, absorbance)
Type: biochemical
Conditions: human MPO 2.5 nM, H2O2 100 μM, buffer pH 6.5, absorbance at about 650 nM
Method: Methods for the determination of MPO inhibitory activity are disclosed in co-pending patent application WO 02/090575. The pharmacological activity of compounds according to the invention was tested in the following screen:
Assay buffer: 20 mM sodium/potassium phosphate buffer pH 6.5 containing 10 mM taurine and 100 mM NaCl.
Developing reagent: 2 mM 3,3′,5,5′-tetramethylbenzidine (TMB), 200 μM KI, 200 mM acetate buffer pH 5.4 with 20% DMF.
To 10 μl of diluted compounds in assay buffer, 40 μl of human MPO (final concentration 2.5 nM) was added for 10 minutes at room temperature. Then 50 μl of H2O2 (final concentration 100 μM), or assay buffer alone as a control, were added for 10 minutes at room temperature. The reaction was stopped by adding 10 μl 0.2 mg/ml of catalase (final concentration 18 μg/ml) for 5 minutes before 100 μl of TMB developing reagent was added (2 mM TMB in 200 mM acetate buffer pH 5.4 containing 20% dimethylformamide (DMF) and 200 μM KI). Plates were mixed and the amount of oxidised 3,3′,5,5′-tetramethylbenzidine formed was then measured after about 5 minutes using absorbance spectroscopy at about […]. IC50 values were then determined using standard procedures.

- IC50: < 60 µM
SMILES: CC(C)Cn1c(=S)[nH]c(=O)c2[nH]c(C(F)(F)F)nc21 [Example 1, 3-Isobutyl-2-thioxo-8-trifluoromethyl-1,2,3,7-tetrahydro-purin-6-one]
